Assays:
[1] = test system: corn seedlings; experiment: Seedling growth in germination medium with BA; type: in vivo; details: for seedling height versus seedlings without BA: 2.0 mg/l BA in germination medium
Experimental: (§1) In this experiment, the standard germination medium contained 4.3 g/l MS basal salts, DM-Vitamins (1.0 mg/l thiamine-HCl, 0.5 mg/l pyridoxine-HCl, 0.5 mg/l nicotinic acid, 100 mg/l myo-inositol), 30 g/l sucrose, (pH 5.8), and 2.0 mg/l benzyladenine (BA). The standard shoot initiation medium contained 4.3 g/l MS basal salts, DM-vitamins (1.0 mg/l thiamine-HCl, 0.5 mg/l pyridoxine-HCl, 0.5 mg/l nicotinic acid, 100 mg/l myo-inositol), 30 g/l sucrose, 8.0 g/l Phytagar, 0.25 mg/l 4-CPA (para-chlorophenoxyacetic acid), 10 mg/l glycine, 150 mg/l asparagine, and 2.0 mg/l BA. The standard root initiation medium contained 4.3 g/l MS basal salts, DM-vitamins (1.0 mg/l thiamine-HCl, 0.5 mg/l pyridoxine-HCl, 0.5 mg/l nicotinic acid, 100 mg/l myo-inositol), 30 g/l sucrose, 8.0 g/l Phytagar, and ±0.5 mg/l IBA.
As a result, those explants were easier to excise. Explants spanning the seventh node (nodal ridge),with a top excision of 0.5-1.0 mm above the ridge were excised from 4, 7, 14 or 21 day-old seedlings and placed on the shoot initiation medium for 4 weeks. After 4 weeks, 45% of the explants from 7 day-old seedlings (+BA) produced multiple shoot clumps, whereas only 24% of 7 day-old seedlings (−BA) produced multiple shoot clumps. Approximately 3% of the 4 day-old seedlings (+BA) produced multiple shoots. Most explants from older seedlings (14 or 21 days) produced only one elongated shoot or 1 shoot with multiple branches. Once placed on the standard root initiation medium, most shoots (85%) rooted and the plants produced were acclimatized and placed under greenhouse conditions where normal flowering and fruiting were observed. Only one out of 29 plants produced was abnormal (i.e., a dwarf with twisted leaves). The explants should remain on the shoot initiation medium for 4 weeks. It was discovered that if the explants are left on the shoot initiation medium for 8 weeks, floral structures appeared.

[2] = test system: nodal ridge explants; experiment: Multiple shoot clump formation from nodal ridge explants of seedlings germinated with BA; type: cell-based, corn; details: 2.0 mg/l BA in germination medium, 4 weeks on shoot initiation medium
Experimental: as §1
As a result, those explants were easier to excise. Explants spanning the seventh node (nodal ridge),with a top excision of 0.5-1.0 mm above the ridge were excised from 4, 7, 14 or 21 day-old seedlings and placed on the shoot initiation medium for 4 weeks. After 4 weeks, 45% of the explants from 7 day-old seedlings (+BA) produced multiple shoot clumps, whereas only 24% of 7 day-old seedlings (−BA) produced multiple shoot clumps. Approximately 3% of the 4 day-old seedlings (+BA) produced multiple shoots. […]

c1ccc(CNc2ncnc3nc[nH]c23)cc1 [BA, benzyladenine]
seedling height versus seedlings without BA ([1]; 4 day-old seedlings): taller than those without BA
seedling height versus seedlings without BA ([1]; by 7 days): no appreciable differences in height
roots at the nodal ridge ([1]; seedlings grown with BA): less roots at the nodal ridge
seedlings (explants) that produced multiple shoots ([2]; 4 day-old seedlings): Approximately 3%
explants that produced multiple shoot clumps ([2]; explants from 7 day-old seedlings): 45%
